Experimental data published in ChEMBL document CHEMBL1140940, “Pyrido[2,3-d]pyrimidin-5-ones: a novel class of antiinflammatory macrophage colony-stimulating factor-1 receptor inhibitors” (J Med Chem, 2009).

What was measured:
[1] = Metabolic stability in rat liver microsomes after 10 mins; format: ADME, Microsome; conditions: read-out: Stability
[2] = Metabolic stability in human liver microsomes after 10 mins; format: ADME, Microsome; conditions: read-out: Stability
[3] = molecular target: Macrophage colony-stimulating factor 1 receptor (Homo sapiens, UniProt P07333)
Macrophage colony-stimulating factor 1 receptor, sequence (P07333 whole entry): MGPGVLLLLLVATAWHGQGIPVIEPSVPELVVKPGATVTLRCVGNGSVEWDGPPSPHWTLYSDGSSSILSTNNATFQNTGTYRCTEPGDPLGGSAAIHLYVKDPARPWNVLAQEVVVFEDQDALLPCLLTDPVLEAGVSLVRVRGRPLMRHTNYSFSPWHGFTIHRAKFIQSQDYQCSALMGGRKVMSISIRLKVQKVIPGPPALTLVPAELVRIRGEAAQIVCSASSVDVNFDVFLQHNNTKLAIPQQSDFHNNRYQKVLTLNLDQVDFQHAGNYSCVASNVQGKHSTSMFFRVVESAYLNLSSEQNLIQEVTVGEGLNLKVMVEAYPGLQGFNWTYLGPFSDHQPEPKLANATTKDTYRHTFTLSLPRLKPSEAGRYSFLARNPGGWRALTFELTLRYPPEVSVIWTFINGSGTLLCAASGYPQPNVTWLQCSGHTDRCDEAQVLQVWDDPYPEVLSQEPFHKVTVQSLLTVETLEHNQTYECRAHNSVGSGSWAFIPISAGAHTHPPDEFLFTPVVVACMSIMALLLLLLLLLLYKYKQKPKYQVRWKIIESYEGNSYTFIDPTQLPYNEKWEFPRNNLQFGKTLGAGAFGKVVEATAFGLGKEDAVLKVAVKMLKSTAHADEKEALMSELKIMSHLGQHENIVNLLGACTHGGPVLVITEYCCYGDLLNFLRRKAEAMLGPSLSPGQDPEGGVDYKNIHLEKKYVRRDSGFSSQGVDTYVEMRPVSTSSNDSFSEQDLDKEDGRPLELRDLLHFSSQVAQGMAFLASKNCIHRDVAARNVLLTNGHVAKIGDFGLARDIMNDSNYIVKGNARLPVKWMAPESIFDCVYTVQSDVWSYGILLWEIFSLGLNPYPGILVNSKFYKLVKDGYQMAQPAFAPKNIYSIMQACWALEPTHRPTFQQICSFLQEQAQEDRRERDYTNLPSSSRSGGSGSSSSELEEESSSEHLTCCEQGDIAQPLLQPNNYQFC

[4] = Cmax in Sprague-Dawley rat at 10 mg/kg, po; format: ADME, organism-based; set-up: dose 10 mg/kg, route oral; conditions: in vivo
[5] = Half life in Sprague-Dawley rat at 10 mg/kg, po; format: ADME, organism-based; set-up: dose 10 mg/kg, route oral; conditions: in vivo
[6] = Half life in Sprague-Dawley rat at 2 mg/kg, iv; format: ADME, organism-based; set-up: dose 2 mg/kg, route intravenous; conditions: in vivo
[7] = Clearance in Sprague-Dawley rat at 2 mg/kg, iv; format: ADME, organism-based; set-up: dose 2 mg/kg, route intravenous; conditions: in vivo
[8] = Volume of distribution at steady state in Sprague-Dawley rat at 2 mg/kg, iv; format: ADME, organism-based; set-up: dose 2 mg/kg, route intravenous; conditions: in vivo, read-out: Vdss
[9] = Oral bioavailability in Sprague-Dawley rat at 10 mg/kg; format: ADME, organism-based; conditions: in vivo
Rattus norvegicus [10] = species on record: Rattus norvegicus; experiment: Toxicity in rat assessed as induction of mucoid feces; format: organism-based; conditions: in vivo
Rattus norvegicus [11] = species on record: Rattus norvegicus; experiment: Toxicity in rat assessed as induction of cold body; format: organism-based; conditions: in vivo
Rattus norvegicus [12] = species on record: Rattus norvegicus; experiment: Toxicity in rat assessed as induction of weight loss; format: organism-based; conditions: in vivo
[13] = molecular target: T1, Receptor-type tyrosine-protein kinase FLT3 (Homo sapiens, UniProt P36888); experiment: Inhibition of FLT3 by fluorescence polarization competition immunoassay
T1 sequence (P36888 whole entry): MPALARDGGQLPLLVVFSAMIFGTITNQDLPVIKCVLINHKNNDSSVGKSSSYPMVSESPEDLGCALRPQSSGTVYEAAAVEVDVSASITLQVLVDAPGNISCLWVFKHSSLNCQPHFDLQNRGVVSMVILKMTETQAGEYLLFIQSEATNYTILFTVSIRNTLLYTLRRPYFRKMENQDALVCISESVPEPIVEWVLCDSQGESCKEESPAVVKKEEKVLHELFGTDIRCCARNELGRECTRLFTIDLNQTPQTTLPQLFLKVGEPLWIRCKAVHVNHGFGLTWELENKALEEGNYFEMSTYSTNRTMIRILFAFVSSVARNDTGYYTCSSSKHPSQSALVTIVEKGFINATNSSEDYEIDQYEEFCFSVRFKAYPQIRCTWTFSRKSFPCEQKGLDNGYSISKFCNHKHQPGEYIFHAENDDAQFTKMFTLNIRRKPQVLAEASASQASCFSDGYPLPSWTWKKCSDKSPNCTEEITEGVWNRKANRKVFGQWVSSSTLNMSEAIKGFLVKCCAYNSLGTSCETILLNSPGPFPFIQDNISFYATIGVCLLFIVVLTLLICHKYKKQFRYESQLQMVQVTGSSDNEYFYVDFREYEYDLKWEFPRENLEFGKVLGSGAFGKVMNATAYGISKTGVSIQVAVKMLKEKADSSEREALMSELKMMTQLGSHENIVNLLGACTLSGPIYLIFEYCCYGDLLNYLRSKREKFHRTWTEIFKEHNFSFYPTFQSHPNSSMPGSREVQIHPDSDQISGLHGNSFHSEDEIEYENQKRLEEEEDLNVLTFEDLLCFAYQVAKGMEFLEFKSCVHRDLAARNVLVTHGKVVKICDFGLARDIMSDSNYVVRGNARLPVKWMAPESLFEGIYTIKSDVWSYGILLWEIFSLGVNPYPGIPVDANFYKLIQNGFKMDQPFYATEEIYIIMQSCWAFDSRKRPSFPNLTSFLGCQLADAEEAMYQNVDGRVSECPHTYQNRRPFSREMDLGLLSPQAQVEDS

[14] = molecular target: Mast/stem cell growth factor receptor Kit (Homo sapiens, UniProt P10721); experiment: Inhibition of KIT by fluorescence polarization competition immunoassay
[15] = molecular target: Platelet-derived growth factor receptor beta (Homo sapiens, UniProt P09619); experiment: Inhibition of PDGFRbeta by fluorescence polarization competition immunoassay
Platelet-derived growth factor receptor beta, sequence (P09619 whole entry): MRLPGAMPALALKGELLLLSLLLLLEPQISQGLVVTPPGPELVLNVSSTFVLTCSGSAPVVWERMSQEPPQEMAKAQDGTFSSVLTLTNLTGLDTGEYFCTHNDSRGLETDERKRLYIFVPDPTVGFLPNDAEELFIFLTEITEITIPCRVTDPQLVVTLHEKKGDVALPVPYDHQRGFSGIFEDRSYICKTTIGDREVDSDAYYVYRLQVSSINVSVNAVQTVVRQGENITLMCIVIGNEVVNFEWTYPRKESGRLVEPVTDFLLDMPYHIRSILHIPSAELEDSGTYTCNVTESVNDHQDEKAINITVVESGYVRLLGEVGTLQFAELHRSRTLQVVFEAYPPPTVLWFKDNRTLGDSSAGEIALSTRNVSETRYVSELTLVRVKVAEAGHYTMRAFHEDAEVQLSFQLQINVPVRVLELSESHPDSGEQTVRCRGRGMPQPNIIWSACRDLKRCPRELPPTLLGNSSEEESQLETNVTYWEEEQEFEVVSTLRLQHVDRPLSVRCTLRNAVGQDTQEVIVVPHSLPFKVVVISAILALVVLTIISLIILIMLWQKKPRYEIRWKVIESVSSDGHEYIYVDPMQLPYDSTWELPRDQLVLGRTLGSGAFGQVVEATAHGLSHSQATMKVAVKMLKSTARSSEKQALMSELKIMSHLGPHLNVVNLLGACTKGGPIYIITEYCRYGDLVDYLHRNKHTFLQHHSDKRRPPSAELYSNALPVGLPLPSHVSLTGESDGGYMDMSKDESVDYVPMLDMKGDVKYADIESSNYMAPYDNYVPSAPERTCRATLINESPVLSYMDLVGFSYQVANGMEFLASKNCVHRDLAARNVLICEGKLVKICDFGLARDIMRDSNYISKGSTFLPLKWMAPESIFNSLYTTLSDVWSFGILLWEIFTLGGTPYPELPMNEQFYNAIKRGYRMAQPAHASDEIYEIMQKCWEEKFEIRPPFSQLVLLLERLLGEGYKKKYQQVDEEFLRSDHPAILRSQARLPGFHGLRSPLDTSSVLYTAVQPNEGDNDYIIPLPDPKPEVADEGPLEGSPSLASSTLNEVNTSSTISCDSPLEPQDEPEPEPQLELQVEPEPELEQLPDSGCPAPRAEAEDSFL

[16] = molecular target: T2, Tyrosine-protein kinase receptor UFO (Homo sapiens, UniProt P30530); experiment: Inhibition of Axl by fluorescence polarization competition immunoassay
T2 sequence (P30530 whole entry): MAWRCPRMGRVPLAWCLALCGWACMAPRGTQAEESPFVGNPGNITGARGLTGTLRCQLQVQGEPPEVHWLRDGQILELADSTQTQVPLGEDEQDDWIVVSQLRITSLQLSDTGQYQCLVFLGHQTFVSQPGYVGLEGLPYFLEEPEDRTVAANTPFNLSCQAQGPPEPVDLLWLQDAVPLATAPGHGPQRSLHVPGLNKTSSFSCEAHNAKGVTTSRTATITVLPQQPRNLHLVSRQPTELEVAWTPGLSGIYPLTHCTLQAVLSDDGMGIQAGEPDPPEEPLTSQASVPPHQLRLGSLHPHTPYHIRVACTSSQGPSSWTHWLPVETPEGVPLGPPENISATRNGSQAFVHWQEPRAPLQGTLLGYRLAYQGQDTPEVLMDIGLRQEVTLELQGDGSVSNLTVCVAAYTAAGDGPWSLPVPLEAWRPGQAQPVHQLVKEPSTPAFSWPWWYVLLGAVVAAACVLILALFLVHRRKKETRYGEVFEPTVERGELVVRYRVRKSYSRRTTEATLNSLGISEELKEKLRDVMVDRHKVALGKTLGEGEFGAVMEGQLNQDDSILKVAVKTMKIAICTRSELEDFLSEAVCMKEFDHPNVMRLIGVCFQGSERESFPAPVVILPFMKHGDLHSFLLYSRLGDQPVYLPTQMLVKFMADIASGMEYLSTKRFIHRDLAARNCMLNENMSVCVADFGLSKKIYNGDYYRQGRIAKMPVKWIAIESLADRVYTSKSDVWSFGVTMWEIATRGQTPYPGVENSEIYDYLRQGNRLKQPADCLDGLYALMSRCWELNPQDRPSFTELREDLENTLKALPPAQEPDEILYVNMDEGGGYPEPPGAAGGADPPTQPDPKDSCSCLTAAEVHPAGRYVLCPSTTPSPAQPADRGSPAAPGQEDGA

[17] = molecular target: High affinity nerve growth factor receptor (Homo sapiens, UniProt P04629); experiment: Inhibition of TrkA by fluorescence polarization competition immunoassay
High affinity nerve growth factor receptor, sequence (P04629 whole entry): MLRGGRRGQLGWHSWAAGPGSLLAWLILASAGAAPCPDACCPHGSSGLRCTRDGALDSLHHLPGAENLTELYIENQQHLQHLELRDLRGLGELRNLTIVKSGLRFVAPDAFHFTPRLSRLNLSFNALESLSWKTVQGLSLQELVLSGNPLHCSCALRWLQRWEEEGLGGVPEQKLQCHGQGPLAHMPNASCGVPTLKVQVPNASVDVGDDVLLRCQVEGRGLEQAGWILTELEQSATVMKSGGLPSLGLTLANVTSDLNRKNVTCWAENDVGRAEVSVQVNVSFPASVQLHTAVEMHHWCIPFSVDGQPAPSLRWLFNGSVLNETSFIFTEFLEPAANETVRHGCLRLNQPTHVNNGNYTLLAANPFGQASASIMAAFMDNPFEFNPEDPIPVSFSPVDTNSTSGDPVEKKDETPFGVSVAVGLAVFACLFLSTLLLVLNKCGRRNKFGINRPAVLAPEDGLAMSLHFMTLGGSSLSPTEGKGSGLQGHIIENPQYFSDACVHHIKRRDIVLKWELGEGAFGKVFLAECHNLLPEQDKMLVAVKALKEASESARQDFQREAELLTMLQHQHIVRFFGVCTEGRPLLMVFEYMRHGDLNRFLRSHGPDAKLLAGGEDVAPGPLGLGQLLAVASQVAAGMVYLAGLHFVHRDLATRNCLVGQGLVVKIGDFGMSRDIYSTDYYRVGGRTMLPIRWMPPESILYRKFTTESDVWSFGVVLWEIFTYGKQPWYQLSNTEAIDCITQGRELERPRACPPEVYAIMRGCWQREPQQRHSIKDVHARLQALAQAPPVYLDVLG

Insulin receptor = Insulin receptor (Homo sapiens, UniProt P06213); experiment: Inhibition of IRKbeta by fluorescence polarization competition immunoassay
Insulin receptor, sequence (P06213 28-758 limits assumed): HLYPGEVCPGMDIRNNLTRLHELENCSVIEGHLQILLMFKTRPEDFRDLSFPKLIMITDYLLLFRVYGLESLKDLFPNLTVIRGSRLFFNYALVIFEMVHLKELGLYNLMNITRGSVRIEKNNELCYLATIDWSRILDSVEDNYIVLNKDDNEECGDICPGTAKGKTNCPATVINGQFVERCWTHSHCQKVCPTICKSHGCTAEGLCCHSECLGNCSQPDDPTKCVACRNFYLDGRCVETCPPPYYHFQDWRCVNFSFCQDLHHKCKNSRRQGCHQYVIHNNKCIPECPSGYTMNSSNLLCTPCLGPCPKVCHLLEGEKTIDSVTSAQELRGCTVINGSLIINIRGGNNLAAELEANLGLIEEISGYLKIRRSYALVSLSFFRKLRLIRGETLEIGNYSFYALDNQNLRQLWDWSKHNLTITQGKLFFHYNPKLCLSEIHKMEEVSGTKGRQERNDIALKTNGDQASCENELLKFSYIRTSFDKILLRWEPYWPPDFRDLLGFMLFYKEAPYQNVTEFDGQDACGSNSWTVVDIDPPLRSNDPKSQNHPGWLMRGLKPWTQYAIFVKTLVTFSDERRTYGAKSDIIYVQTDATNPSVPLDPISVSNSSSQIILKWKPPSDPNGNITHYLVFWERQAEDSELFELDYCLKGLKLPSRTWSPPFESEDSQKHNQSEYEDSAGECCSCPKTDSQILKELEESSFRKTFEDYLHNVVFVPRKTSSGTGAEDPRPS
Insulin receptor, sequence (P06213 763-1382 limits assumed): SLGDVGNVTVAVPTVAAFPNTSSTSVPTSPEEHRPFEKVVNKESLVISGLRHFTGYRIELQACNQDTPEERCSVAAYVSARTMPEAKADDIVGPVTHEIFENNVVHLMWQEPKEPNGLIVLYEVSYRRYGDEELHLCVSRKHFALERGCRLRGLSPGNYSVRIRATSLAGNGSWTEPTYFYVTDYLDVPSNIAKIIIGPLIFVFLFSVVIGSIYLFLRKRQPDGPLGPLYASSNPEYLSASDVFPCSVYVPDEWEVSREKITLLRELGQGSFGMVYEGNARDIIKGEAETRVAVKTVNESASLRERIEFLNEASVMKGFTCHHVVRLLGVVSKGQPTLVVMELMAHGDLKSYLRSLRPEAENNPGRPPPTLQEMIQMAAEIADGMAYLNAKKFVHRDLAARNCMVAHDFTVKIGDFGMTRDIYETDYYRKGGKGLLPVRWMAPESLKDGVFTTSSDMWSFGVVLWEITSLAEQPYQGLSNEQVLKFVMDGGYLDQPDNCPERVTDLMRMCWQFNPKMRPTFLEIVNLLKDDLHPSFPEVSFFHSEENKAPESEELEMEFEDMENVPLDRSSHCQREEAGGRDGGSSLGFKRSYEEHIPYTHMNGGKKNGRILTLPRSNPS

[18] = molecular target: Proto-oncogene tyrosine-protein kinase Src (Homo sapiens, UniProt P12931); experiment: Inhibition of Src by fluorescence polarization competition immunoassay
Proto-oncogene tyrosine-protein kinase Src, sequence (P12931 2-536 limits assumed): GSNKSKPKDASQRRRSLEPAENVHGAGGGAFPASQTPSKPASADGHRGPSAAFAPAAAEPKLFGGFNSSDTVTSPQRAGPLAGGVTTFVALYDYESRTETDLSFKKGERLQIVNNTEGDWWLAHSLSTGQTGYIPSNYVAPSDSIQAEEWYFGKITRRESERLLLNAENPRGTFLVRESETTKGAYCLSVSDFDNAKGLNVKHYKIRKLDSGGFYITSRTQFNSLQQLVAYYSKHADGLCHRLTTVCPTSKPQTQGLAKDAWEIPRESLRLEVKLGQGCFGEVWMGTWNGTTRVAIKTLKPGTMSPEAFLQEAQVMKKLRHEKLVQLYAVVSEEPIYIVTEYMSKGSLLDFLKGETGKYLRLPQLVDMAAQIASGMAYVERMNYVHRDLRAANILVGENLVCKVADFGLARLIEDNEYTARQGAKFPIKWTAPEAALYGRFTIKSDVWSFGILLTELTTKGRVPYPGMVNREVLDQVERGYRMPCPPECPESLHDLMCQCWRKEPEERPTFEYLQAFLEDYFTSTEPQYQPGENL

Row | Compound | remaining at 10 min [1] | remaining at 10 min [2] | IC50 [3] | half-life [6] | clearance [7] | Vd [8] | bioavailability [9] | further results
1 | CONC(=O)c1cn(C2CCCCC2)c2nc(Nc3ccc(C4CCN(C)CC4)cc3)ncc2c1=O | 68% | 96% | 5 nM |  |  |  |  | 
2 | CCc1cccc(-n2cc(C(=O)NOC)c(=O)c3cnc(Nc4ccc(C5CCN(C)CC5)cc4)nc32)c1 |  |  | 0.4 nM |  |  |  |  | 
3 | CCCCNc1ncc2c(=O)c(C(=O)NOC)cn(-c3ccc4c(c3)CCC4)c2n1 |  |  | 15 nM |  |  |  |  | 
4 | CCNC(=O)c1cn(-c2ccc3c(c2)CCC3)c2nc(Nc3ccc(CCN4CCN(C)CC4)cc3)ncc2c1=O |  |  | 3.2 nM |  |  |  |  | 
5 | CCc1ccc(-n2cc(C(=O)NOC)c(=O)c3cnc(Nc4ccc(C5CCN(C)CC5)cc4)nc32)cc1 | 96% | 75% |  | 8 h | 8 mL/min/kg | 5.9 L/kg | 103% | Cmax [4]: 3400 nM; half-life [5]: 8.1 h; Activity (Rattus norvegicus [10]): Non-toxic; Activity (Rattus norvegicus [11]): Non-toxic; Activity (Rattus norvegicus [12]): Non-toxic
6 | CONC(=O)c1cn(-c2ccc3c(c2)CCC3)c2nc(Nc3ccc(CCS(=O)(=O)NC(C)=O)cc3)ncc2c1=O | 83% | 84% |  |  |  |  |  | 
7 | CCONC(=O)c1cn(-c2ccc3c(c2)CCC3)c2nc(Nc3ccc(CCN4CCN(C)CC4)cc3)ncc2c1=O | 84% |  |  |  |  |  |  | 
8 | CONC(=O)c1cn(-c2ccc3c(c2)CCC3)c2nc(Nc3ccc(C4CCN(CCO)CC4)cc3)ncc2c1=O | 100% | 80% |  | 3 h | 34 mL/min/kg | 8.8 L/kg | 8% | Cmax [4]: 130 nM
9 | CONC(=O)c1cn(-c2ccc3c(c2)CCC3)c2nc(Nc3ccc(CCN4CCN(C)CC4)cc3)ncc2c1=O | 78% |  | 0.7 nM | 4.5 h | 4 mL/min/kg | 1.5 L/kg | 57% | IC50 [13]: 36 nM; IC50 [14]: 6 nM; IC50 [15]: 5300 nM; IC50 [16]: > 500 nM; IC50 [17]: > 500 nM; IC50 (Insulin receptor): 19800 nM; IC50 [18]: 1500 nM; Cmax [4]: 2700 nM; half-life [5]: 6.5 h
10 | CONC(=O)c1cn(-c2ccc3c(c2)CCC3)c2nc(Nc3ccc(CCN4CCN(C)C(=O)C4)cc3)ncc2c1=O | 29% | 2.8% | 0.8 nM |  |  |  |  | 
11 | CONC(=O)c1cn(-c2ccc3c(c2)CCC3)c2nc(Nc3ccc(C4CCN(CC(=O)O)CC4)cc3)ncc2c1=O | 99% | 100% |  | 1.7 h | 38 mL/min/kg | 5.1 L/kg | 0% | IC50 [13]: 41 nM; IC50 [14]: 13 nM; IC50 [15]: > 2000 nM; IC50 [16]: > 500 nM; IC50 [17]: > 500 nM; IC50 (Insulin receptor): 9300 nM; IC50 [18]: 930 nM
12 | CONC(=O)c1cn(-c2ccc3c(c2)CCC3)c2nc(Nc3ccc(OC)nc3)ncc2c1=O |  |  | 5.2 nM |  |  |  |  | 
13 | CN1CCN(CCc2ccc(Nc3ncc4c(=O)c(C(N)=O)cn(-c5ccc6c(c5)CCC6)c4n3)cc2)CC1 | 96% |  |  | 7 h | 25 mL/min/kg | 15.5 L/kg | 0% | IC50 [13]: 1 nM; IC50 [14]: 20 nM; IC50 [15]: > 42000 nM; IC50 [16]: > 500 nM; IC50 [17]: 170 nM; IC50 (Insulin receptor): > 42000 nM; IC50 [18]: 5900 nM
14 | CNC(=O)c1cn(-c2ccc3c(c2)CCC3)c2nc(Nc3ccc(CCN4CCOCC4)cc3)ncc2c1=O | 100% |  | 1.4 nM | 0.7 h | 47 mL/min/kg | 2.6 L/kg | 4% | Cmax [4]: 130 nM; half-life [5]: 1.8 h
15 | CONC(=O)c1cn(-c2ccc3c(c2)CCC3)c2nc(Nc3ccc(CCN4CCC(F)(F)CC4)cc3)ncc2c1=O | 86% | 83% |  |  |  |  |  | 
16 | CONC(=O)c1cn(-c2ccc3c(c2)CCC3)c2nc(Nc3ccc(C4CCNCC4)cc3)ncc2c1=O | 93% | 97% | 0.5 nM |  |  |  |  | 
17 | CONC(=O)c1cn(C2CCC(C)(C)CC2)c2nc(Nc3ccc(C4CCN(C)CC4)cc3)ncc2c1=O | 97% | 93% |  |  |  |  |  | 
18 | CNC(=O)c1cn(-c2ccc3c(c2)CCC3)c2nc(Nc3ccc(CCN4CCN(C)CC4)cc3)ncc2c1=O | 73% |  | 1.2 nM |  |  |  |  | 
19 | CN1CCN(CCc2ccc(Nc3ncc4c(=O)c(C(=O)NCCO)cn(-c5ccc6c(c5)CCC6)c4n3)cc2)CC1 | 84% |  | 0.7 nM |  |  |  |  | 
20 | CONC(=O)c1cn(-c2ccc3c(c2)CCC3)c2nc(NCc3ccccc3)ncc2c1=O |  |  | 75 nM |  |  |  |  | 
21 | CCN1CCCC(O)(c2cccc(Nc3ncc4c(=O)c(C(=O)NOC)cn(-c5ccc6c(c5)CCC6)c4n3)c2)C1 (centres undefined) | 89% | 88% |  | 5.2 h | 20.4 mL/min/kg | 5.6 L/kg | 28% | Cmax [4]: 400 nM
22 | CN1CCN(c2ccc(Nc3ncc4c(=O)c(C(N)=O)cn(-c5ccc6c(c5)CCC6)c4n3)cc2)CC1 |  |  |  |  |  |  | 0% | 
23 | CONC(=O)c1cn(-c2ccc3c(c2)CCC3)c2nc(Nc3ccc(CCN4CCOCC4)cc3)ncc2c1=O | 24% | 5.4% |  |  |  |  |  | 
24 | CC(C)ONC(=O)c1cn(-c2ccc3c(c2)CCC3)c2nc(Nc3ccc(CCN4CCN(C)CC4)cc3)ncc2c1=O | 100% |  | 0.5 nM |  |  |  |  | 
25 | CONC(=O)c1cn(-c2ccc3c(c2)CCC3)c2nc(Nc3ccc(C4CCN(C)CC4(F)F)cc3)ncc2c1=O (centres undefined) | 44% | 16% | 0.7 nM |  |  |  |  | 
26 | CONC(=O)c1cn(-c2ccc3c(c2)CCC3)c2nc(Nc3ccc(CCN4CCNC(=O)C4)cc3)ncc2c1=O | 69% | 35% |  | 6 h | 10 mL/min/kg | 0.8 L/kg | 3% | Cmax [4]: 80 nM; half-life [5]: 9.7 h
